The assay addresses T1, PI3K (Homo sapiens, UniProt O00329).
T1 construct: purchased Millipore (Bedford, Mass.)
The experiment in a line: PI3K enzyme assays (at least one assay described herein). Format: biochemical. As to conditions: according to at least one assay described herein; assay not specified. The source says: PI3-Kinase luminescent assay kit including lipid kinase substrate, D-myo-phosphatidylinositol 4,5-bisphosphate (PtdIns(4,5)P2)D (+)-sn-1,2-di-O-octanoylglyceryl, 3-O-phospho linked (PIP2), biotinylated I(1,3,4,5)P4, PI(3,4,5)P3 Detector Protein is purchased from Echelon Biosciences (Salt Lake City, Utah). AlphaScreen™ GST Detection Kit including donor and acceptor beads was purchased from PerkinElmer Life Sciences (Waltham, Mass.). PI3Kδ (p110δ/p85α) is purchased from Millipore (Bedford, Mass.). ATP, MgCl2, DTT, EDTA, HEPES and CHAPS are purchased from Sigma-Aldrich (St. Louis, Mo.).
The kinase reaction are conducted in 384-well REMP plate from Thermo Fisher Scientific in a final volume of 40 μL. Inhibitors are first diluted serially in DMSO and added to the plate wells before the addition of other reaction components. The final concentration of DMSO in the assay is 2%. The PI3K assays are carried out at room temperature in 50 mM HEPES, pH 7.4, 5 mM MgCl2, 50 mM NaCl, 5 mM DTT and CHAPS 0.04%. […] The activity of the product is determined on Fusion-alpha microplate reader (Perkin-Elmer). […]
The kinase reactions are conducted in clear-bottom 96-well plate from Thermo Fisher Scientific in a final volume of 24 μL. […] After the plate sealing, the radioactivity of the product is determined by scintillation counting on Topcount (Perkin-Elmer). […]

SMILES strings stand for the structures.

T1 sequence (O00329 whole entry): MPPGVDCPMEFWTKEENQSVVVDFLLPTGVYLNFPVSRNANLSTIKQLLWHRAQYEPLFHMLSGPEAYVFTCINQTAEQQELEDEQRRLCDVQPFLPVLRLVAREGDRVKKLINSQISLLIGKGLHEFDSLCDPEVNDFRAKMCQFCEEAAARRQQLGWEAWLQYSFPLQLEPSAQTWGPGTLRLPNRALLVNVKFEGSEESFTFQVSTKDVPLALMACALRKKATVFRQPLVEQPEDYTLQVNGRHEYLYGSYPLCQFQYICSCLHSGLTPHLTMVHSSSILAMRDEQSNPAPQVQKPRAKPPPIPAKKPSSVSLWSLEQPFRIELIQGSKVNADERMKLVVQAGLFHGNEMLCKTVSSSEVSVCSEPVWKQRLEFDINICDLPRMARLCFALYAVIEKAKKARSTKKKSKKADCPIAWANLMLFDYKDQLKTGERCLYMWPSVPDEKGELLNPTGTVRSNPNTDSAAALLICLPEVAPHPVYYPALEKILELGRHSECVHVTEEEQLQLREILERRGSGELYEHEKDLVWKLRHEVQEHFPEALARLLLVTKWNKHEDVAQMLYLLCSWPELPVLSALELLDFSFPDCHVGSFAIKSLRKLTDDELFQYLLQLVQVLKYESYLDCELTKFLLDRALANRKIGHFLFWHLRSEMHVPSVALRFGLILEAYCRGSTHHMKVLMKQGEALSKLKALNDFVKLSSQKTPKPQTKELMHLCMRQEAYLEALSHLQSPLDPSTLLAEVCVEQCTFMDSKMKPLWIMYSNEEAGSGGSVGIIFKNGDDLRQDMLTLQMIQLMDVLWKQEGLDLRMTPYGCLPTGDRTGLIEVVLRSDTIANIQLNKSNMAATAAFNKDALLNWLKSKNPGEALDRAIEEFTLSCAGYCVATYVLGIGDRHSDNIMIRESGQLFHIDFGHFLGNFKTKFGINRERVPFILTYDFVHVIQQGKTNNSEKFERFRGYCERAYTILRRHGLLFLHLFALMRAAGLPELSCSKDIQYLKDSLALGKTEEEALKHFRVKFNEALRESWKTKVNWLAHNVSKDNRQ
T1 sequence (P27986 whole entry partner): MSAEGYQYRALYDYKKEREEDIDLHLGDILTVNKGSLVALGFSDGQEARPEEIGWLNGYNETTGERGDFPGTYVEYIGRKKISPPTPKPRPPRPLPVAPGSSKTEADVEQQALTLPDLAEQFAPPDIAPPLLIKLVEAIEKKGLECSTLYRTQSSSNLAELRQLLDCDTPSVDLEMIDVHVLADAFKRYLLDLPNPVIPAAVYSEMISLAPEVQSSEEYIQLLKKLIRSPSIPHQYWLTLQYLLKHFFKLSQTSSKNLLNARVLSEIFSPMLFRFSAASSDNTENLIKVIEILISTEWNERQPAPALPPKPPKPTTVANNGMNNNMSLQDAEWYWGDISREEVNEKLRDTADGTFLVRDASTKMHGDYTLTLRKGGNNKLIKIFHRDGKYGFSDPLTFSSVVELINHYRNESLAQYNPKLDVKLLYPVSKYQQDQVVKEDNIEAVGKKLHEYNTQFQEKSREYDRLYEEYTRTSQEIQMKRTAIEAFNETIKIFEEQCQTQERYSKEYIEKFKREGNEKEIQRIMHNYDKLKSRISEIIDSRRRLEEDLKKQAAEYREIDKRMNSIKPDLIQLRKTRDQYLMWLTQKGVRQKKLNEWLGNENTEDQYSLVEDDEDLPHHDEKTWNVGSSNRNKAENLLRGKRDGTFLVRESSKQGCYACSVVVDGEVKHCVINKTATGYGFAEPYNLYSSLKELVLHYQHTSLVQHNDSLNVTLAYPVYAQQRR

Consider `CCOc1c([C@H](C)n2nc(C)c3c(N)ncnc32)cc(Cl)c(F)c1[C@@H]1CNC(=O)O1` [compound of Formula I, (R)-5-(3-((S)-1-(4-amino-3-methyl-1H-pyrazolo[3,4-d]pyrimidin-1-yl)ethyl)-5-chloro-2-ethoxy-6-fluorophenyl)oxazolidin-2-one], for which the “PI3K inhibition (qualitative statement)” value was “found to be PI3K inhibitors”.
